# Source: patent publication US20240207293A1, “COMPOSITION FOR IMPROVING INTESTINAL MICROBIAL POPULATION COMPRISING GALACTOSE” (Quorum Bio Co., Ltd., priority 2021, published 2024)
# How the values were obtained:
# Type in all cases: in vivo, C57BL/6J mouse
# [1] = Measurement of body weight (weight gain) in mice on normal or high-fat diet; settings: 16 weeks, oral daily, n=8
# Description: A 5-week-old male C57BL/6J mouse prepared in Example 1.2 were used after a 2-week acclimatization process, and then adjustment of body weight for each group. From the time the mouse reached 7 weeks of age, obesity was induced with a high fat diet (HFD). The mice were fed ad libitum with a general feed or a high-fat diet feed for 16 weeks, and PBS and galactose were orally administered daily to each group. The input amount and the remaining amount of the feed were measured twice a week to calculate daily caloric intake, and the body weight was measured once a week at a designated time. During the experimental period (16 weeks) designed in Example 1.3, the body weight of the experimental animals were measured at a predetermined time every week before administration of galactose or PBS, and body weight change (weight gain) and survival rate were measured (allowed to euthanize if the body weight decreases to less than 20% of the initial body weight). The weight gain was calculated by setting the body weight (initial body weight) of the experimental animal at 7 weeks of age as 100% and then calculating the body weight measured at each time point as a relative value to the initial body weight.
# [2] = Intraperitoneal glucose tolerance test
# Description: The experimental animals were kept hungry (12-hour fasting) from 9:00 p.m. the day before the test to 9:00 a.m. the day of the test, and then a blood glucose test was performed. To keep a hungry condition, feed and straw litter were removed to induce fasting. A 10% (w/v) glucose (in PBS) solution sterilized by 0.2 μm filtration was prepared. After intraperitoneally administering 2 mg glucose/g, volume=body weight*20 (μl) for each individual, the mice were again put in the cage, and blood glucose levels were measured every 0, 30, 60, 90, and 120 minutes. The blood glucose tests were performed by collecting blood from the caudal vein. The intraperitoneal glucose tolerance test was performed 13 weeks after inducing obesity with a high-fat diet.
# Alistipes = experiment: Metagenome analysis of feces in high-fat diet induced obesity model: proportion of Alistipes; settings: for Alistipes Average (%): feces after 8 weeks
# Description: (§1) A 5-week-old male C57BL/6J mouse prepared in Example 1.2 were used after a 2-week acclimatization process, and then adjustment of body weight for each group. From the time the mouse reached 7 weeks of age, obesity was induced with a high fat diet (HFD). The mice were fed ad libitum with a general feed or a high-fat diet feed for 16 weeks, and PBS and galactose were orally administered daily to each group. The input amount and the remaining amount of the feed were measured twice a week to calculate daily caloric intake, and the body weight was measured once a week at a designated time. For microbiome analysis, feces were collected as shown in FIG. 1 and analysis was requested to Macrogen Inc. Feces were collected after selecting five mice whose body weight was closest to the average. The number of animals in each group was set to 8. After 8 weeks of the experiment, metagenome analysis was performed by collecting feces from the 3rd group (HFD-PBS), the 5th group (HFD-Gal 100 mg/kg), and the 6th group (HFD-Gal 50 mg/kg). The results of the metagenomic analysis were obtained by requesting metagenome sequencing to Macrogen Co., Ltd. For the experimental results, significance was tested using the TTEST method, and when the P value was less than 0.05, that value was determined to be significant ((*)<0.05, (**)<0.01, (***)<0.001).
# Lactobacillus = experiment: Metagenome analysis of feces in high-fat diet induced obesity model: proportion of Lactobacillus; settings: for Lactobacillus Average (%): feces after 8 weeks
# Description: as §1
# Akkermansia = experiment: Metagenome analysis of feces in high-fat diet induced obesity model: proportion of Akkermansia; settings: for Akkermansia Average (%): feces after 8 weeks
# Description: as §1
# [3] = group 5: high fat diet, galactose 100 mg/kg oral daily
# [4] = group 6: high fat diet, galactose 50 mg/kg oral daily
# [5] = high fat diet, galactose-administered group vs PBS control
smiles,measurement,setting,value
"O=C[C@H](O)[C@@H](O)[C@@H](O)[C@H](O)CO [Galactose, galactose]",weight gain vs PBS-administered group,[1]; general diet group,no significant difference
same,weight gain vs PBS-administered group,[1]; high-fat diet feed group,significantly reduced
same,blood sugar levels at 120 minutes,"[2]; high-fat diet group, measured at 120 minutes after i.p. glucose",comparable to those in the normal diet group
same,blood glucose level vs control group (PBS-administered),"[2]; high-fat diet intake group (HD), 13 weeks after inducing obesity, 2 mg glucose/g i.p.",significantly decreased
same,blood glucose by galactose administration,"[2]; normal diet intake group (ND), 2 mg glucose/g i.p., 12-hour fasting",decreased
same,Alistipes Average (%),Alistipes; [3],1.0275%
same,Alistipes Average (%),Alistipes; [4],1.9675%
same,proportion of Alistipes as compared with a control group,Alistipes; [5],increased
same,Lactobacillus Average (%),Lactobacillus; [3],3.8375%
same,Lactobacillus Average (%),Lactobacillus; [4],2.17%
same,proportion of Lactobacillus as compared with a control group,Lactobacillus; [5],increased
same,Akkermansia Average (%),Akkermansia; [3],1.365%
same,Akkermansia Average (%),Akkermansia; [4],0.135%
same,proportion of Akkermansia as compared with a control group,Akkermansia; [5],increased
